These results are taken from ChEMBL document CHEMBL4411312, “Design, Synthesis, and Biological Evaluation of New 1-(Aryl-1 H-pyrrolyl)(phenyl)methyl-1 H-imidazole Derivatives as Antiprotozoal Agents” (J Med Chem, 2019).

For orientation: IC50 means the concentration that inhibits the measured activity by half. One may read the CC50 as the concentration that lowers cell viability or growth by half. As a reminder, the Kd is a measure of binding affinity in units of concentration.

Activity calls are given as the source filed them. The calls are words filed in the database; no cut-off is given here.

Data set [1] in a line: Selectivity index, ratio of CC50 for rat L6 cels to IC50 for erythrocytic stage of Plasmodium falciparum K1. Type of data set: toxicity. The conditions noted are these: L6 cells, read-out: Ratio IC50.
For a further data set, the system named is Plasmodium falciparum. The experiment in a line: Antiprotozoal activity against erythrocytic stage of Plasmodium falciparum K1 after 48 hrs by [3H]- hypoxanthine incorporation assay. The class given is functional, organism-based.
The target in a further data set is Cytochrome P450 2D6 (Homo sapiens, UniProt P10635). The experiment in a line: Inhibition of human CYP2D6 in presence of NADPH by luciferase reporter gene assay. Type of data set: ADME.
Cytochrome P450 2D6, sequence (P10635 whole entry): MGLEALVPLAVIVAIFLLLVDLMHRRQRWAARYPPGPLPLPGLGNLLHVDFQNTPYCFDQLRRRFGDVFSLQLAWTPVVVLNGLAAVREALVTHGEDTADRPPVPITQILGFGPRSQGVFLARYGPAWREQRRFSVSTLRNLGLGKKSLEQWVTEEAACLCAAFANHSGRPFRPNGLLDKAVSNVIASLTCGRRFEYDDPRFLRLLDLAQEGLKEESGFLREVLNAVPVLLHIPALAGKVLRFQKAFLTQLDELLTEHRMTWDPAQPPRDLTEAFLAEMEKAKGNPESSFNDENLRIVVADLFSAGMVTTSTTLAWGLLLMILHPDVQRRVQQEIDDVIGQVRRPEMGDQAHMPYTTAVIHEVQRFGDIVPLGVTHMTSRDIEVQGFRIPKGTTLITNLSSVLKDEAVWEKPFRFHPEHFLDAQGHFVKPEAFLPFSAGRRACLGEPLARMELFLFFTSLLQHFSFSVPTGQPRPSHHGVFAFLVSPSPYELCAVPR
The test system of data set [2] is Trypanosoma brucei rhodesiense. Kind of data set: Antiprotozoal activity against Trypanosoma brucei rhodesiense STIB900 trypomastigotes after 72 hrs by Alamar Blue dye-based fluorometric analysis. The class given is functional, organism-based. The conditions noted are these: STIB900, 72 h. A general note: The colour change of resazurin is a common sign of viable cells or microbes.

The subject of data set [3] is Trypanosoma cruzi. The experiment in a line: Potency index, ratio of benznidazole IC50 to compound IC50 for Trypanosoma cruzi Tulahuen C2C4 amastigotes infected in rat L6 cells after 96 hrs by inverted microscopic analysis. The class given is functional.
Data set [4] can be described thus: Selectivity index, ratio of CC50 for rat L6 cels to IC50 for Leishmania donovani MHOM/ET/67/L82 axenic amastigote. Type of data set: toxicity. The conditions noted are these: L6 cells, read-out: Ratio IC50.
The target of the next data set is T1, Cytochrome P450 1A2 (Homo sapiens, UniProt P05177).
T1 sequence (P05177 whole entry): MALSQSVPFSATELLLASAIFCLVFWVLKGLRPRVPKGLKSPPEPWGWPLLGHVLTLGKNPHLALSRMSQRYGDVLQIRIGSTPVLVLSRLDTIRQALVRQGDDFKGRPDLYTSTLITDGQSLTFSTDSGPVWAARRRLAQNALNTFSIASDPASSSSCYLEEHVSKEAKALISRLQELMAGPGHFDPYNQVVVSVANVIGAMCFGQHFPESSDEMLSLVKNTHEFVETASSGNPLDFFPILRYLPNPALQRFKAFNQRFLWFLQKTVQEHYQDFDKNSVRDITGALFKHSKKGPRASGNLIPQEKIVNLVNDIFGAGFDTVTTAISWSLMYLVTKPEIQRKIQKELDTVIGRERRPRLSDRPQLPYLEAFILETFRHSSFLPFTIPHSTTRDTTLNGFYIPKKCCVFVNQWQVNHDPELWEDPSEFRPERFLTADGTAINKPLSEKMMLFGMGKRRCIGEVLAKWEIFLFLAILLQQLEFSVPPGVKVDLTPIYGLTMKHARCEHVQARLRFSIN
The experiment in a line: Inhibition of human CYP1A2 in presence of NADPH by luciferase reporter gene assay. The class given is ADME.

A further data set has as its system Leishmania donovani. The experiment in a line: Antiprotozoal activity against Leishmania donovani MHOM/ET/67/L82 axenic amastigote after 72 hrs by inverted microscopic analysis. The class given is functional, organism-based. The conditions noted are these: MHOM/ET/67/L82, 72 h.
Data set [5] can be described thus: Cytotoxicity against rat L6 cels assessed as reduction in cell viability after 72 hrs by Alamar Blue dye-based fluorometric analysis. The conditions noted are these: L6 cells.
In the next data set the target is Cytochrome P450 3A4 (Homo sapiens, UniProt P08684). The experiment in a line: Inhibition of human CYP3A4 in presence of NADPH by luciferase reporter gene assay. Type of data set: ADME.
Cytochrome P450 3A4, sequence (P08684 whole entry): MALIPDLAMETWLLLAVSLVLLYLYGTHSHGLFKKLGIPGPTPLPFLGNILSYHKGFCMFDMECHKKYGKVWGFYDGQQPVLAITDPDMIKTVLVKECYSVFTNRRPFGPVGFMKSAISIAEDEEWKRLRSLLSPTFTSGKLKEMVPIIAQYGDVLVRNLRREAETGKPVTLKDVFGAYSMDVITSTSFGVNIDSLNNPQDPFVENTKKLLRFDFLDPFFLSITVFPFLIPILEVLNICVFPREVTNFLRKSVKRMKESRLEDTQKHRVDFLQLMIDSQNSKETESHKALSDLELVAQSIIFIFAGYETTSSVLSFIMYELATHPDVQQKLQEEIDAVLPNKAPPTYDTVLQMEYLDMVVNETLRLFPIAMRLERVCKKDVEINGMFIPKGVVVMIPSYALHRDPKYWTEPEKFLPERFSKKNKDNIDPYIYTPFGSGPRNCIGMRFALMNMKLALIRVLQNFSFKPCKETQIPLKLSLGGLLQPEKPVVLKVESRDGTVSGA
Data set [6] concerns Trypanosoma cruzi. Kind of data set: Antiprotozoal activity against Trypanosoma cruzi Tulahuen C2C4 amastigotes infected in rat L6 cells after 96 hrs by inverted microscopic analysis. The class given is functional, organism-based. The conditions noted are these: Tulahuen C2C4, L6, 96 h.
Data set [7] deals with Sterol 14-alpha demethylase (Trypanosoma cruzi (strain CL Brener)) (UniProt Q7Z1V1). The experiment in a line: Binding affinity to Trypanosoma cruzi CYP51 at 5 to 10 uM by UV-vis spectrophotometry.
Sterol 14-alpha demethylase (Trypanosoma cruzi (strain CL Brener)), sequence (Q7Z1V1 whole entry, looked up): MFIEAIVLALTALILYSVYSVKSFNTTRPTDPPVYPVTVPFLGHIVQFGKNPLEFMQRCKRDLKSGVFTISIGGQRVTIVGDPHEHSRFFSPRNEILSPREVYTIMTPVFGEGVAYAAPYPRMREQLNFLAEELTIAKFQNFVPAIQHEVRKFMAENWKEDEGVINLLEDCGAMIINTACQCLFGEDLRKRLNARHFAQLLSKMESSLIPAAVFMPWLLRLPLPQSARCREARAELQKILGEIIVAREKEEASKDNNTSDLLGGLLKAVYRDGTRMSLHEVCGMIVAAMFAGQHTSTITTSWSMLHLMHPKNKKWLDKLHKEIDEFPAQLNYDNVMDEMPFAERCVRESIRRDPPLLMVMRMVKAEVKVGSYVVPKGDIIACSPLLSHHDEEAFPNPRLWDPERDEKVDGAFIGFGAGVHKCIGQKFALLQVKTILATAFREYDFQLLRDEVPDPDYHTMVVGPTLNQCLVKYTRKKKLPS
A short description of data set [8]: Toxicity in BALB/c mouse infected with Trypanosoma cruzi CL Brener trypomastigotes assessed as lack of grooming at 25 mg/kg, ip bid treated for 4 consecutive days starting at 3 days post infection. The class given is organism-based. The conditions noted are these: in vivo, 72 h.
Data set [9] is described as follows: Toxicity in BALB/c mouse infected with Trypanosoma cruzi CL Brener trypomastigotes assessed as hunched posture at 25 mg/kg, ip bid treated for 4 consecutive days starting at 3 days post infection. The class given is organism-based. The conditions noted are these: in vivo, 72 h.
The nature of data set [10]: Toxicity in BALB/c mouse infected with Trypanosoma cruzi CL Brener trypomastigotes assessed as loss of body weight at 25 mg/kg, ip bid treated for 4 consecutive days starting at 3 days post infection. Type of data set: organism-based. The conditions noted are these: in vivo, 72 h.
Data set [11] in a line: Toxicity in BALB/c mouse infected with Trypanosoma cruzi CL Brener trypomastigotes assessed as reduced mobility at 25 mg/kg, ip bid treated for 4 consecutive days starting at 3 days post infection. Type of data set: organism-based. The conditions noted are these: in vivo, 72 h.
Data set [12] concerns Trypanosoma cruzi. The experiment in a line: Antiprotozoal activity against Trypanosoma cruzi CL Brener trypomastigotes infected in BALB/c mouse assessed as reduction in parasitemia at 25 mg/kg, ip bid treated for 4 consecutive days starting at 3 days post infection by bioluminescence assay relative to control. The class given is functional. Set-up: scale not given: the % may be the effect or the level left.

The target of data set [13] is Sterol 14-alpha demethylase (Trypanosoma cruzi (strain CL Brener), UniProt Q7Z1V1). Kind of data set: Binding affinity to Trypanosoma cruzi CYP51 by UV-vis spectrophotometry.
Sterol 14-alpha demethylase, sequence (Q7Z1V1 whole entry): as the sequence (Q7Z1V1 whole entry, looked up) above
Another data set deals with T2, CYP1A2 (Homo sapiens, UniProt P05177).
T2 sequence (P05177 whole entry): T1 sequence (P05177 whole entry)
Kind of data set: Safety index, ratio of IC50 for test compound to IC50 for furafylline for inhibition of human CYP1A2 in presence of NADPH by luciferase reporter gene assay. The conditions noted are these: read-out: Ratio IC50. The class given is ADME. In general terms: A reporter such as luciferase makes a cellular process visible.

Consider `C=CCn1cc(C(c2ccc(Cl)cc2)n2ccnc2)cc1-c1ccc(Cl)cc1` (stereo unspecified), for which the figures for the selectivity ratio in data set [1] and in data set [4] were 12 and 4, respectively. In addition, the IC50 in the data set on Plasmodium falciparum is 630 nM; at Cytochrome P450 2D6, 2000 nM; in data set [2] it was 38700 nM; at Cytochrome P450 1A2, 1200 nM; in the data set with Leishmania donovani, 2160 nM; at Cytochrome P450 3A4, 900 nM. In the data set with Trypanosoma cruzi [6], the 50% inhibitory concentration (IC50) is 2 nM. Moreover, the “Ratio IC50” value in the data set with Trypanosoma cruzi [3] is listed as 330 - 825. In addition, in [5], the CC50 at 72 h worked out at 7760 nM. The outcome in data set [7] was Active.

In the case of `Cn1cc(C(c2ccc(Cl)cc2)n2ccnc2)cc1-c1ccc(Cl)cc1` (stereo unspecified), the Activity entry in [8] is “Non-Toxic”; in data set [9], “Non-Toxic”; in data set [10], “Non-Toxic”; in data set [11] it was “Non-Toxic”; in the data set on Trypanosoma cruzi [12] it was 99.4%. The selectivity ratio was found to be 9 in [1] and 2 in data set [4]. Moreover, the IC50 was 1410 nM in the data set with Plasmodium falciparum; 3000 nM at Cytochrome P450 2D6; 40000 nM in data set [2]; 2000 nM on Cytochrome P450 1A2; 5700 nM in the data set with Leishmania donovani; 1100 nM at Cytochrome P450 3A4. Besides, the half-inhibitory concentration (IC50) with Trypanosoma cruzi [6] was determined as 3 nM. Also, the “Ratio IC50” value in the data set on Trypanosoma cruzi [3] is recorded as 330 - 825. The CC50 at 72 h in data set [5] is 12100 nM. The result in data set [7] was Active.

Regarding `Clc1ccc(-c2cc(C(c3ccc(Cl)cc3)n3ccnc3)c[nH]2)cc1` (stereo unspecified), the Activity entry in [8] was “Non-Toxic”; in [9], “Non-Toxic”; in data set [10] it was “Non-Toxic”; in data set [11], “Non-Toxic”; with Trypanosoma cruzi [12], 99.5%. The selectivity ratio came out at 9 in data set [1] and 2 in data set [4]. The concentration for half-maximal inhibition (IC50) in the data set with Plasmodium falciparum came out at 780 nM; at Cytochrome P450 2D6, 4000 nM; in data set [2], 7390 nM; at Cytochrome P450 1A2, 400 nM; in the data set with Leishmania donovani, 3010 nM; on Cytochrome P450 3A4 it was 1400 nM. The same compound gave an IC50 in the data set with Trypanosoma cruzi [6] of 3 nM. In data set [13], this compound had a dissociation constant (Kd) of 5500 nM. Also, the “Ratio IC50” value in the data set on Trypanosoma cruzi [3] is reported as 330 - 825. In addition, the CC50 at 72 h in [5] is 6650 nM.

Take `Clc1ccc(-c2c[nH]cc2C(c2ccc(Cl)cc2Cl)n2ccnc2)cc1` (racemic): the selectivity ratio at CYP1A2 was found to be 3. Besides, the IC50 at Cytochrome P450 2D6 is 1300 nM; on Cytochrome P450 1A2 it was 7000 nM; on Cytochrome P450 3A4 it was 800 nM; in the data set with Trypanosoma cruzi [6] it was 35 nM.
